Measured values published in US4214091A, “Antibiotic No. 2-200 and process for producing thereof” (Chugai Seiyaku Kabushiki Kaisha, priority 1977, dated 1980).
In brackets after ≈: the same amount, converted by molar mass. Where two headings read alike, the source gives them in different places.

Columns and labels:
Bacillus cereus = assay: MIC by agar plate dilution method; type: cell-based; conditions: 37° C., 24 hours
Protocol: (§1) The test organisms were incubated by agar plate dilution method at 37° C. for 24 hours, after which their growth was observed. The test organisms were incubated on an NB medium (product of Eiken Kagaku) at 37° C. overnight, and each culture obtained was diluted 10^3 - to 10^4 -fold and stamped on an agar plate. The following agar plate media were used:
(§2) NA: nutrient agar (product of Eiken Kagaku)
(§3) NA+G6P: glucose-6-phosphoric acid (50 μg/ml) plus nutrient agar
(§4) Anti-3A: antibiotic medium No. 3 agar (product of Difco)
(§5) MHA: Mueller Hinton Agar (product of Eiken Kagaku)

[1] = system: Klebsiella pneumoniae 15c; assay: MIC by agar plate dilution method; type: cell-based; conditions: 24 h, read-out: Minimum inhibitory concentration
Protocol: as §1, §2, §3, §4, §5

[2] = system: Pseudomonas aeruginosa G-75; assay: MIC by agar plate dilution method; type: cell-based; conditions: 37° C., 24 hours
Protocol: as §1, §2, §3, §4, §5

Salmonella paratyphi A = assay: MIC by agar plate dilution method; type: cell-based; conditions: Salmonella enterica, 24 h
Protocol: as §1, §2, §3, §4, §5

Salmonella typhi TANAKA = assay: MIC by agar plate dilution method; type: cell-based; conditions: Salmonella enterica, 24 h
Protocol: as §1, §2, §3, §4, §5

[3] = system: Staphylococcus aureus 209P; assay: MIC by agar plate dilution method; type: cell-based; conditions: 24 h, 37° C., read-out: Minimum inhibitory concentration
Protocol: as §1, §2, §3, §4, §5

[4] = system: Staphylococcus epidermidis T0-3; assay: MIC by agar plate dilution method; type: cell-based; conditions: T03, 24 h, 37° C., read-out: Minimum inhibitory concentration
Protocol: as §1, §2, §3, §4, §5

[5] = acute toxicity, single administration; conditions: mouse, in vivo, pH 7, read-out: median lethal dose (LD50)
Protocol: (§6) The crystal of the antibiotic No. 2-200 obtained in Example 4 was floated in sterile distilled water, mixed with 5% caustic soda to adjust the pH to 7.0, and dissolved to make a solution. The solution was adminstered to 5-week-old ddY male mice to examine its actuate toxicity as well as delayed toxicity. During 10 days that followed the administration, the weight of each mouse, its food intake and water intake were measured.

5-week-old ddY male mice = conditions: mouse, in vivo
Protocol: as §6

Solubility in solvents = type: physicochemical
gram negative bacteria = assay: antibacterial activity (general statement); type: cell-based
[6] = system: bacteria of genus Salmonella; assay: antibacterial activity (general statement); type: cell-based
[7] = system: bacteria of genus Serratia; assay: antibacterial activity (general statement); type: cell-based
[8] = system: mutant of Pseudomonus aeroginosa, for example, G-75, M-57740; assay: growth inhibition of β-lactam-sensitive mutant; type: cell-based; conditions: mutant sensitive to a β-lactam antibiotic
From the text: The present inventors further continued their studies and succeeded in isolating from a culture of actinomycete an effective substance as a crystal, which was subjected to X-ray diffractometry to determine its structure. […] This invention is a development of studies based on these findings.

mammals = conditions: in vivo
[9] = read-out: Minimum inhibitory concentration, Anti-3A, 37° C.
[10] = read-out: Minimum inhibitory concentration, MHA, 37° C.
[11] = read-out: Minimum inhibitory concentration, NA + G6P (50 μg/ml), 37° C.
[12] = read-out: Minimum inhibitory concentration, NA, 37° C.

## C=CC(C)=CC1(C)SC(=O)C(C)=C1O (single isomer, unassigned) [No. 2-200]
Bacillus cereus; Anti-3A
  Minimum inhibitory concentration: 50 µg/mL (≈ 238 µM)
Bacillus cereus; Bacillus cereus, NA, read-out: Minimum inhibitory concentration
  MIC: 50 µg/mL (≈ 238 µM)
Bacillus cereus; MHA
  Minimum inhibitory concentration: 50 µg/mL (≈ 238 µM)
Bacillus cereus; NA + G6P (50 μg/ml)
  Minimum inhibitory concentration: 50 µg/mL
[1]; Anti-3A, 37° C., 24 hours
  MIC: 50 µg/mL (≈ 238 µM)
[1]; NA + G6P (50 μg/ml), 37° C., 24 hours
  MIC: 100 µg/mL
[1]; NA, 37° C., 24 hours
  MIC: 100 µg/mL (≈ 476 µM)
[1]
  MIC: 12.5 µg/mL (≈ 59.4 µM)
[2]; Anti-3A
  Minimum inhibitory concentration: 6.25 µg/mL (≈ 29.7 µM)
[2]; MHA
  Minimum inhibitory concentration: 6.25 µg/mL (≈ 29.7 µM)
[2]; NA + G6P (50 μg/ml)
  Minimum inhibitory concentration: 6.25 µg/mL
[2]; Pseudomonas aeruginosa, G75, NA, read-out: Minimum inhibitory concentration
  MIC: 6.25 µg/mL (≈ 29.7 µM)
Salmonella paratyphi A; [9]
  MIC: 50 µg/mL (≈ 238 µM)
Salmonella paratyphi A; [10]
  MIC: 3.12 µg/mL (≈ 14.8 µM)
Salmonella paratyphi A; [11]
  MIC: 50 µg/mL
Salmonella paratyphi A; [12]
  MIC: 50 µg/mL (≈ 238 µM)
Salmonella typhi TANAKA; [9]
  MIC: 12.5 µg/mL (≈ 59.4 µM)
Salmonella typhi TANAKA; [10]
  MIC: 3.12 µg/mL (≈ 14.8 µM)
Salmonella typhi TANAKA; [11]
  MIC: 12.5 µg/mL
Salmonella typhi TANAKA; [12]
  MIC: 12.5 µg/mL (≈ 59.4 µM)
[3]; Anti-3A
  MIC: 25 µg/mL (≈ 119 µM)
[3]; MHA
  MIC: 50 µg/mL (≈ 238 µM)
[3]; NA + G6P (50 μg/ml)
  MIC: ≥ 50 µg/mL
[3]; NA
  MIC: > 50 µg/mL
[4]; Anti-3A
  MIC: 100 µg/mL (≈ 476 µM)
[4]; MHA
  MIC: 50 µg/mL (≈ 238 µM)
[4]; NA + G6P (50 μg/ml)
  MIC: 50 µg/mL
[4]; NA
  MIC: 50 µg/mL (≈ 238 µM)
[5]; ip
  LD50 at 240 h: 810 mg/kg
[5]; iv
  LD50 at 240 h: 705 mg/kg
5-week-old ddY male mice
  delayed toxicity: entirely free from delayed toxicity
Solubility in solvents; acetone
  solubility: easily soluble
Solubility in solvents; alkaline water
  solubility: easily soluble
Solubility in solvents; ethyl acetate
  solubility: easily soluble
Solubility in solvents; methanol
  solubility: easily soluble
Solubility in solvents; neutral to acidic water
  solubility: slightly soluble
Gram negative bacteria
  antibacterial activity to gram negative bacteria: exhibits antibacterial activity
[6]
  antibacterial activity to bacteria of genus Salmonella: particularly strong antibacterial activity
[7]
  antibacterial activity to bacteria of genus Serratia: particularly strong antibacterial activity
[8]
  inhibition of growth: strongly inhibits the growth
mammals
  delayed toxicity (general statement): no delayed toxicity
